Source: the NIST ThermoML archive (doi:10.1016/j.jct.2010.05.002)

Experiment: molar heat capacity at constant pressure
Settings: 101.33 kPa, Vacuum adiabatic calorimetry

Cc1ccc(-c2ccccc2)cc1 [4-methylbiphenyl]
Settings | molar heat capacity at constant pressure [J/K/mol]
200.03 K, Crystal 2 | 158.25
201.21 K, Crystal 2 | 159.08
202.67 K, Crystal 2 | 160.39
204.13 K, Crystal 2 | 161.16
205.59 K, Crystal 2 | 161.88
207.05 K, Crystal 2 | 163.01
208.5 K, Crystal 2 | 164.47
209.95 K, Crystal 2 | 165.42
211.41 K, Crystal 2 | 166.95
212.86 K, Crystal 2 | 167.72
214.31 K, Crystal 2 | 168.81
215.75 K, Crystal 2 | 169.75
217.19 K, Crystal 2 | 170.91
218.63 K, Crystal 2 | 172.34
220.07 K, Crystal 2 | 173.54
221.51 K, Crystal 2 | 174.81
224.33 K, Crystal 2 | 177.09
225.77 K, Crystal 2 | 178.63
227.21 K, Crystal 2 | 179.26
228.64 K, Crystal 2 | 180.46
230.07 K, Crystal 2 | 181.65
231.5 K, Crystal 2 | 183.05
232.92 K, Crystal 2 | 183.59
234.35 K, Crystal 2 | 184.76
235.77 K, Crystal 2 | 186
237.2 K, Crystal 2 | 186.68
238.62 K, Crystal 2 | 188.83
240.04 K, Crystal 2 | 189.96
241.46 K, Crystal 2 | 190.95
242.88 K, Crystal 2 | 191.92
245.71 K, Crystal 2 | 194.12
247.06 K, Crystal 2 | 195.69
248.47 K, Crystal 2 | 196.82
249.87 K, Crystal 2 | 197.8
251.28 K, Crystal 2 | 198.95
252.68 K, Crystal 2 | 199.51
254.07 K, Crystal 2 | 203.15
255.46 K, Crystal 2 | 205.87
256.86 K, Crystal 2 | 204.64
258.26 K, Crystal 2 | 207.95
259.65 K, Crystal 2 | 209.9
261.05 K, Crystal 2 | 211.67
262.45 K, Crystal 2 | 213.5
263.84 K, Crystal 2 | 216.69
265.26 K, Crystal 2 | 218.04
265.74 K, Crystal 2 | 214.98
266.62 K, Crystal 2 | 215.48
267.35 K, Crystal 2 | 216.35
268.06 K, Crystal 2 | 216.34
268.77 K, Crystal 2 | 218.41
269.46 K, Crystal 2 | 217.65
270.14 K, Crystal 2 | 220.43
270.81 K, Crystal 2 | 221.73
271.48 K, Crystal 2 | 224.8
272.13 K, Crystal 2 | 226.98
272.79 K, Crystal 2 | 228.68
273.44 K, Crystal 2 | 230.85
274.09 K, Crystal 2 | 231.46
274.73 K, Crystal 2 | 233.58
275.38 K, Crystal 2 | 235.91
276.02 K, Crystal 2 | 236.58
276.54 K, Crystal 2 | 238.77
277.18 K, Crystal 2 | 240.39
277.82 K, Crystal 2 | 243.02
278.45 K, Crystal 2 | 244.38
279.09 K, Crystal 2 | 245.39
279.72 K, Crystal 2 | 247.06
280.35 K, Crystal 2 | 249.06
280.98 K, Crystal 2 | 250.28
281.61 K, Crystal 2 | 250.82
282.22 K, Crystal 2 | 253.9
282.84 K, Crystal 2 | 255.25
283.47 K, Crystal 2 | 256.25
284.09 K, Crystal 2 | 257.26
284.71 K, Crystal 2 | 258.2
285.32 K, Crystal 2 | 261
285.94 K, Crystal 2 | 262.67
286.41 K, Crystal 2 | 265.19
287.03 K, Crystal 2 | 266.14
287.64 K, Crystal 2 | 267.86
288.24 K, Crystal 2 | 270.21
289.45 K, Crystal 2 | 271.63
290.05 K, Crystal 2 | 274.89
290.65 K, Crystal 2 | 278.67
291.25 K, Crystal 2 | 281.37
291.85 K, Crystal 2 | 283.3
292.44 K, Crystal 2 | 287.63
293.04 K, Crystal 2 | 291.45
293.63 K, Crystal 2 | 298.7
294.21 K, Crystal 2 | 301.08
294.8 K, Crystal 2 | 306.74
295.38 K, Crystal 2 | 315.73
295.81 K, Crystal 2 | 323.56
296.38 K, Crystal 2 | 356.89
296.78 K, Crystal 2 | 604.38
298.45 K, Crystal 1 | 252.48
299.16 K, Crystal 1 | 242.36
299.72 K, Crystal 1 | 239.35
300.27 K, Crystal 1 | 238.79
300.79 K, Crystal 1 | 244.43
301.28 K, Crystal 1 | 240.52
301.77 K, Crystal 1 | 242.22
302.25 K, Crystal 1 | 243.96
302.73 K, Crystal 1 | 242.88
303.21 K, Crystal 1 | 243.63
303.43 K, Crystal 1 | 242.23
303.9 K, Crystal 1 | 242.44
304.37 K, Crystal 1 | 241.56
304.84 K, Crystal 1 | 243.77
305.31 K, Crystal 1 | 244.44
